Patent US9695155B2, “Herbicidal substituted pyrimidinyloxy benzene compounds” (E. I. DU PONT DE NEMOURS AND COMPANY, priority 2013, dated 2017)

Legend:
barnyardgrass [1] = assay: Test A preemergence; assay type: in vivo, Echinochloa crus-galli; settings: for Barnyardgrass plant response rating: 500 g ai/ha
How it was run: (§1)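 Pre- and postemergence greenhouse screen. Soil: loam + sand. Spray carrier: solvent mixture, non-phytotoxic, with surfactant. Post timing at 1–2 leaves, height 2–10 cm. Readout: visual injury on a 0–100 scale roughly 10 days after application, untreated plants as reference.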

large (Lg) crabgrass [2] = assay: Test A preemergence; assay type: in vivo, Digitaria sanguinalis; settings: for Crabgrass, Large plant response rating: 500 g ai/ha
How it was run: as §1

giant foxtail [3] = assay: Test A preemergence; assay type: in vivo, Setaria faberii; settings: for Foxtail, Giant plant response rating: 500 g ai/ha
How it was run: as §1

morningglory [4] = assay: Test A preemergence; assay type: in vivo, Ipomoea spp.; settings: for Morningglory plant response rating: 500 g ai/ha
How it was run: as §1

pigweed [5] = assay: Test A preemergence; assay type: in vivo, Amaranthus retroflexus; settings: for Pigweed plant response rating: 500 g ai/ha
How it was run: as §1

velvetleaf [6] = assay: Test A preemergence; assay type: in vivo, Abutilon theophrasti; settings: for Velvetleaf plant response rating: 500 g ai/ha
How it was run: as §1

wheat [7] = assay: Test A preemergence; assay type: in vivo, Triticum aestivum; settings: for Wheat plant response rating: 500 g ai/ha
How it was run: as §1

corn [8] = assay: Test A preemergence; assay type: in vivo, Zea mays; settings: for Corn plant response rating: 500 g ai/ha
How it was run: as §1

barnyardgrass [9] = assay: Test A postemergence; assay type: in vivo, Echinochloa crus-galli
How it was run: as §1

large (Lg) crabgrass [10] = assay: Test A postemergence; assay type: in vivo, Digitaria sanguinalis
How it was run: as §1

giant foxtail [11] = assay: Test A postemergence; assay type: in vivo, Setaria faberii
How it was run: as §1

morningglory [12] = assay: Test A postemergence; assay type: in vivo, Ipomoea spp.
How it was run: as §1

pigweed [13] = assay: Test A postemergence; assay type: in vivo, Amaranthus retroflexus
How it was run: as §1

velvetleaf [14] = assay: Test A postemergence; assay type: in vivo, Abutilon theophrasti
How it was run: as §1

wheat [15] = assay: Test A postemergence; assay type: in vivo, Triticum aestivum
How it was run: as §1

corn [16] = assay: Test A postemergence; assay type: in vivo, Zea mays
How it was run: as §1

rice = assay: Test B flooded paddy test; assay type: in vivo, Oryza sativa; settings: Flood, 250 g ai/ha; 0 to 100 scale where 0 is no effect and 100 is complete control
How it was run: (§2)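 Plants were grown to the 2-leaf stage, then pots were flooded to 3 cm above the soil and compounds were applied directly into the paddy water. That depth was held throughout, and after 13 to 15 days in the greenhouse injury was rated visually against controls on a 0–100 scale (0 no effect, 100 complete control).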

sedge, umbrella = assay: Test B flooded paddy test; assay type: in vivo, Cyperus difformis; settings: Flood, 250 g ai/ha; 0 to 100 scale where 0 is no effect and 100 is complete control
How it was run: as §2

Heteranthera limosa = assay: Test B flooded paddy test; assay type: in vivo; settings: Flood, 250 g ai/ha; 0 to 100 scale where 0 is no effect and 100 is complete control
How it was run: as §2

barnyardgrass [17] = assay: Test B flooded paddy test; assay type: in vivo, Echinochloa crus-galli; settings: Flood, 250 g ai/ha; 0 to 100 scale where 0 is no effect and 100 is complete control
How it was run: as §2

[18] = 125 g ai/ha, 0 to 100 scale where 0 is no effect and 100 is complete control
[19] = 0 to 100 scale, 0 no effect, 100 complete control, approx. 10 days
[20] = 500 g ai/ha, 0 to 100 scale, 0 no effect, 100 complete control
[21] = 0 to 100 scale where 0 is no effect and 100 is complete control
[22] = 500 g ai/ha, 0 to 100 scale where 0 is no effect and 100 is complete control

FC(F)(F)c1ccc(Oc2ncc(Cl)cn2)c(-n2cc(Br)cn2)c1 [Compound 48]
50: Plant response rating, Crabgrass, Large (large (Lg) crabgrass [2]; [18]) | Foxtail, Giant plant response rating (giant foxtail [3]; [19]) | Plant response rating, Pigweed (pigweed [13]; [20])
80: Crabgrass, Large plant response rating (large (Lg) crabgrass [2]; [19])
20: Plant response rating, Crabgrass, Large (large (Lg) crabgrass [10]; [20]) | Plant response rating, Foxtail, Giant (giant foxtail [11]; [20]) | Plant response rating, Morningglory (morningglory [12]; [18]) | Plant response rating, Pigweed (pigweed [13]; [18])
10: Plant response rating, Foxtail, Giant (giant foxtail [3]; [18]) | Plant response rating, Barnyardgrass (barnyardgrass [9]; [20]) | Plant response rating, Crabgrass, Large (large (Lg) crabgrass [10]; [18]) | Plant response rating, Velvetleaf (velvetleaf [14]; [20])
30: Plant response rating, Morningglory (morningglory [12]; [20])
0: Plant response rating, Barnyardgrass (barnyardgrass [1]; [18]) | Barnyardgrass plant response rating (barnyardgrass [1]; [19]) | Plant response rating, Morningglory (morningglory [4]; [18]) | Morningglory plant response rating (morningglory [4]; [19]) | Plant response rating, Pigweed (pigweed [5]; [18]) | Pigweed plant response rating (pigweed [5]; [19]) | Plant response rating, Velvetleaf (velvetleaf [6]; [18]) | Velvetleaf plant response rating (velvetleaf [6]; [19]) | Plant response rating, Wheat (wheat [7]; [18]) | Wheat plant response rating (wheat [7]; [19]) | Plant response rating, Corn (corn [8]; [18]) | Corn plant response rating (corn [8]; [19]) | Plant response rating, Barnyardgrass (barnyardgrass [9]; [18]) | Plant response rating, Foxtail, Giant (giant foxtail [11]; [18]) | Plant response rating, Velvetleaf (velvetleaf [14]; [18]) | Plant response rating, Wheat (wheat [15]; [18]) | Plant response rating, Wheat (wheat [15]; [20]) | Plant response rating, Corn (corn [16]; [18]) | Plant response rating, Corn (corn [16]; [20]) | Plant response rating, Rice (rice) | Plant response rating, Sedge, Umbrella (sedge, umbrella) | Plant response rating, Ducksalad (Heteranthera limosa) | Plant response rating, Barnyardgrass (barnyardgrass [17])

N#Cc1cccc(Oc2ncc(Cl)cn2)c1-n1cccn1 [Compound 208]
30: Morningglory plant response rating (morningglory [4]; [21]) | Pigweed plant response rating (0 to 100 scale) (pigweed [5]; 125 g ai/ha) | Pigweed plant response rating (pigweed [13]; [18])
50: Velvetleaf plant response rating (velvetleaf [6]; [21])
80: Plant response rating, Morningglory (morningglory [12]; [22])
100: Crabgrass, Large plant response rating (large (Lg) crabgrass [2]; [21]) | Pigweed plant response rating (pigweed [5]; [21]) | Plant response rating, Pigweed (pigweed [13]; [22])
70: Barnyardgrass plant response rating (barnyardgrass [1]; [21])
20: Crabgrass, Large plant response rating (0 to 100 scale) (large (Lg) crabgrass [2]; 125 g ai/ha) | Foxtail, Giant plant response rating (0 to 100 scale) (giant foxtail [3]; 125 g ai/ha) | Wheat plant response rating (wheat [7]; [21]) | Plant response rating, Crabgrass, Large (large (Lg) crabgrass [10]; [22]) | Plant response rating, Foxtail, Giant (giant foxtail [11]; [22]) | Morningglory plant response rating (morningglory [12]; [18]) | Plant response rating, Corn (corn [16]; [22])
0: Barnyardgrass plant response rating (0 to 100 scale, 0 is no effect, 100 is complete control) (barnyardgrass [1]; 125 g ai/ha) | Morningglory plant response rating (0 to 100 scale) (morningglory [4]; 125 g ai/ha) | Velvetleaf plant response rating (0 to 100 scale) (velvetleaf [6]; 125 g ai/ha) | Wheat plant response rating (0 to 100 scale) (wheat [7]; 125 g ai/ha) | Corn plant response rating (0 to 100 scale) (corn [8]; 125 g ai/ha) | Corn plant response rating (corn [8]; [21]) | Barnyardgrass plant response rating (barnyardgrass [9]; [18]) | Plant response rating, Barnyardgrass (barnyardgrass [9]; [22]) | Crabgrass, Large plant response rating (large (Lg) crabgrass [10]; [18]) | Foxtail, Giant plant response rating (giant foxtail [11]; [18]) | Wheat plant response rating (wheat [15]; [18]) | Plant response rating, Wheat (wheat [15]; [22]) | Corn plant response rating (corn [16]; [18]) | Plant response rating, Rice (rice) | Plant response rating, Sedge, Umbrella (sedge, umbrella) | Plant response rating, Ducksalad (Heteranthera limosa) | Plant response rating, Barnyardgrass (barnyardgrass [17])
60: Plant response rating, Velvetleaf (velvetleaf [14]; [22])
40: Velvetleaf plant response rating (velvetleaf [14]; [18])
90: Foxtail, Giant plant response rating (giant foxtail [3]; [21])

Cc1cccc(Oc2ncc(Br)cn2)c1-n1cc(Br)cn1 [Compound 45]
70: Plant response rating, Foxtail, Giant (giant foxtail [11]; [18]) | Plant response rating, Corn (corn [16]; [20])
85: Plant response rating, Ducksalad (Heteranthera limosa)
90: Plant response rating, Crabgrass, Large (large (Lg) crabgrass [2]; [18]) | Plant response rating, Foxtail, Giant (giant foxtail [3]; [18]) | Plant response rating, Foxtail, Giant (giant foxtail [11]; [20])
75: Plant response rating, Sedge, Umbrella (sedge, umbrella)
100: Barnyardgrass plant response rating (barnyardgrass [1]; [19]) | Crabgrass, Large plant response rating (large (Lg) crabgrass [2]; [19]) | Foxtail, Giant plant response rating (giant foxtail [3]; [19]) | Plant response rating, Pigweed (pigweed [5]; [18]) | Pigweed plant response rating (pigweed [5]; [19]) | Plant response rating, Velvetleaf (velvetleaf [6]; [18]) | Velvetleaf plant response rating (velvetleaf [6]; [19]) | Plant response rating, Barnyardgrass (barnyardgrass [9]; [20]) | Plant response rating, Crabgrass, Large (large (Lg) crabgrass [10]; [20]) | Plant response rating, Velvetleaf (velvetleaf [14]; [18]) | Plant response rating, Velvetleaf (velvetleaf [14]; [20])
60: Plant response rating, Crabgrass, Large (large (Lg) crabgrass [10]; [18]) | Plant response rating, Pigweed (pigweed [13]; [18])
30: Plant response rating, Barnyardgrass (barnyardgrass [1]; [18]) | Plant response rating, Barnyardgrass (barnyardgrass [17])
10: Morningglory plant response rating (morningglory [4]; [19]) | Plant response rating, Morningglory (morningglory [12]; [18]) | Plant response rating, Corn (corn [16]; [18])
20: Corn plant response rating (corn [8]; [19]) | Plant response rating, Morningglory (morningglory [12]; [20])
80: Plant response rating, Pigweed (pigweed [13]; [20])
40: Plant response rating, Barnyardgrass (barnyardgrass [9]; [18]) | Plant response rating, Wheat (wheat [15]; [20])
0: Plant response rating, Morningglory (morningglory [4]; [18]) | Plant response rating, Wheat (wheat [7]; [18]) | Wheat plant response rating (wheat [7]; [19]) | Plant response rating, Corn (corn [8]; [18]) | Plant response rating, Wheat (wheat [15]; [18]) | Plant response rating, Rice (rice)
